The text below walks through data of patent US8217031B2, “Heteroaryl derivatives” (Nippon Shinyaku Co., Ltd., priority 2007, dated 2012).

Counter-ions that a name gives are not always drawn.

Experiment [1] has as its target T1, [3H]norepinephrine re-uptake in synaptosome (Rattus norvegicus, UniProt Q9WTR4).
T1 construct: to give a synaptosome solution; from tissue; host or cells: rat cerebral cortex synaptosomes (male SD rats)
The experiment is described as follows: Inhibition of norepinephrine reuptake in rat cerebral cortex synaptosome. The experiment is classed as biochemical. As to conditions: Ki calculated from IC50 and Kd, read-out: Norepinephrine Reuptake Inhibiting Activity, Ki value. The procedure: (§1) Experiments for Inhibition of Serotonin Reuptake and Experiments for Inhibition of Norepinephrine Reuptake
(§2) Cerebral cortex of male SD rats (JAPAN SLC Inc.), over six weeks of age was excised and a 0.32M sucrose solution was added thereto in an amount of 10 mL per gram of the cerebral cortex followed by homogenizing. The homogenized solution was centrifuged, the supernatant thereof was further centrifuged at high speed and, to the resulting pellets, a PSS solution (pH 7.4; comprising 150 mM of NaCl, 4 mM of KCl, 1 mM of MgCl2, 2.5 mM of HEPES, 0.9 mg/mL of glucose, 0.176 mg/mL of ascorbic acid and 1 mM of pargylin) was added in an amount of 10 mL per gram of the pellets to give a synaptosome solution. A compound to be tested (100 μL) was added to 100 μL of the synaptosome solution and 700 μL of a 50 mM Tris buffer (pH 7.4; trihydroxylaminomethane) followed by subjecting to pre-incubation at 37° C. for 5 minutes. After the pre-incubation, 100 μL of [^3H]serotonin or [^3H]norepinephrine diluted to 10 nM and 20 nM, respectively, with a Tris buffer was added thereto followed by incubating at 37° C. for 5 minutes.
(§3) Synaptosome was recovered on a GF/B filter using a cell harvester and further washed three times using a washing solution (50 mM Tris buffer; pH 7.4; 4° C.). The filter was transferred to a vial, a scintillator was added thereto and the radiation activity was measured using a liquid scintillation counter.
(§4) Incidentally, the non-specific reaction was defined as the radiation activity under ice-cooling (4° C.) and the difference between the total radiation activity and the radiation activity under the non-specific reaction was adopted as the radiation activity specifically re-uptaken in the synaptosome. IC50 value was determined from the re-uptake inhibition rate in the presence of a test compound and, from IC50 value and the Kd value of [^3H]serotonin or [^3H]norepinephrine, Ki value of the test compound showing a re-uptake inhibiting activity of serotonin or norepinephrine, respectively, was calculated.

The target in experiment [2] is T2, [3H]serotonin re-uptake in synaptosome (Rattus norvegicus, UniProt P31652).
T2 construct: to give a synaptosome solution; from tissue; host or cells: rat cerebral cortex synaptosomes (male SD rats)
Put plainly: Inhibition of serotonin reuptake in rat cerebral cortex synaptosome. As to conditions: Ki calculated from IC50 and Kd, read-out: Serotonin Reuptake Inhibiting Activity, Ki value. The experiment is classed as biochemical. The method, then:
as §1, §2, §3, §4

Another experiment deals with rats under anesthesia. Put plainly: Measurement of urine leak point pressure in rats under anesthesia. In kind it is in vivo, rat. As to conditions: intravenous administration of not more than 10 mg/kg; female rats, urethane anesthesia, thoracic spine cut at T8 to T9. The procedure: Measurement of Urine Leak Point Pressure in Rats Under Anesthesia Under anesthesia with urethane (1.2 g/kg; subcutaneous administration), the thoracic spine of female rats of 8 to 12 weeks of age (Japan SLC Inc.) was cut at the level of T8 to T9 so that the micturition reflex was made to disappear, then the abdomen was subjected to a median incision to expose the bladder and then a cannula was inserted into the bladder. An appropriate amount (ca. 0.4 mL) of a physiological saline was previously infused into the bladder, both sides of the bladder were gradually pressed with two cotton buds and the inner pressure of the bladder when the physiological saline solution leaked out from the urethral orifice was measured as a pressure upon leakage of urine. The measurement was repeated several times until the measured values became stable and, after that, the test compound was intravenously administered and a pharmacological effect of the test compound was evaluated.

T2 sequence (P31652 whole entry): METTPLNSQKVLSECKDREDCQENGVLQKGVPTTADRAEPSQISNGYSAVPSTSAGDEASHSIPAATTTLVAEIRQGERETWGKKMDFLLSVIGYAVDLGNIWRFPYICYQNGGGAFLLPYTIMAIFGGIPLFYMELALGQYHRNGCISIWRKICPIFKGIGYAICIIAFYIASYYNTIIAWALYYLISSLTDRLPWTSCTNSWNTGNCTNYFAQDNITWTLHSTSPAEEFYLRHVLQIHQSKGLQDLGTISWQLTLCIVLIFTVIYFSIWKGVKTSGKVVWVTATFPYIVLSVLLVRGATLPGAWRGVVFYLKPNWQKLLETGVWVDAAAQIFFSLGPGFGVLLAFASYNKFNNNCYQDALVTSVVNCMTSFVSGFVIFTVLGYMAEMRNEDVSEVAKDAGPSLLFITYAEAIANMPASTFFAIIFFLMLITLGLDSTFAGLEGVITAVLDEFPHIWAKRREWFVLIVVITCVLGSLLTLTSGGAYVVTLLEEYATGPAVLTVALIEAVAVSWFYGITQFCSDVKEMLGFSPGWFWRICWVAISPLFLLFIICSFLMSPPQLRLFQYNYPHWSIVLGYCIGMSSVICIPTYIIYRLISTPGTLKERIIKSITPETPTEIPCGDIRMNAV
T1 sequence (Q9WTR4 1-597): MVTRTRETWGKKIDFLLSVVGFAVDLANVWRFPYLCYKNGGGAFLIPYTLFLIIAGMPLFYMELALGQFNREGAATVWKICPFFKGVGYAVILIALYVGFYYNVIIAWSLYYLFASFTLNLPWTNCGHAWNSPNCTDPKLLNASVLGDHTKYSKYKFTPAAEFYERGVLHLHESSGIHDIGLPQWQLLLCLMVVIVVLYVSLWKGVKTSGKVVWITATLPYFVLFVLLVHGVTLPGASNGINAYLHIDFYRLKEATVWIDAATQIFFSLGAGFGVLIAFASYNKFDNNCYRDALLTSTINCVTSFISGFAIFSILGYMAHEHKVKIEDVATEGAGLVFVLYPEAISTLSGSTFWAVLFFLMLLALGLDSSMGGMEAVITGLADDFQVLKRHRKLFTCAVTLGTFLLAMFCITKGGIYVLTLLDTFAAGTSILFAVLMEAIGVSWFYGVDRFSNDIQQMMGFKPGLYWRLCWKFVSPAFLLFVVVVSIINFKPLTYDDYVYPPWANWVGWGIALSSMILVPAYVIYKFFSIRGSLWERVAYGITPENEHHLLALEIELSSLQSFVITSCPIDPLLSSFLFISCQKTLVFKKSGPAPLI

In the case of `CN1CCC(Oc2cccc(Br)c2Cl)c2ccoc2C1.Cl` (single isomer, unassigned; (+)) [Example 398, (+)-4-(3-Bromo-2-chlorophenyloxy)-7-methyl-5,6,7,8-tetrahydro-4H-furo[2,3-c]azepine hydrochloride], the inhibition constant Ki (usually a measure of affinity in units of concentration, obtained from inhibition or displacement) in experiment [1] is 5.6 nM; in experiment [2], 1.7 nM. In addition, the “leak point pressure (pressure upon leakage of urine)” value (“leak point pressure” for short) in the experiment with rats under anesthesia is listed as “raised the leak point pressure”.

Consider `CN1CCC(Oc2cccc(Cl)c2Cl)c2ccoc2C1.Cl` (single isomer, unassigned; (+)) [Example 400, (+)-4-(2,3-Dichlorophenyloxy)-7-methyl-5,6,7,8-tetrahydro-4H-furo[2,3-c]azepine hydrochloride], for which the Ki was 2.4 nM in experiment [1] and 0.5 nM in experiment [2]. The “leak point pressure” value with rats under anesthesia is reported as “raised the leak point pressure”.

Consider `Cc1cc2c(o1)CN(C)CCC2Oc1cccc2ccccc12.Cl` (single isomer, unassigned; (+)) [Example 401, (+)-2,7-Dimethyl-4-(naphthalen-1-yloxy)-5,6,7,8-tetrahydro-4H-furo[2,3-c]azepine hydrochloride], for which the Ki in experiment [1] was 3.2 nM; in experiment [2] it was 1 nM. For the same compound, the “leak point pressure” value in the experiment on rats under anesthesia is listed as “raised the leak point pressure”.

On to `CN1Cc2ccsc2C(Oc2cccc3ccccc23)C1` (stereo not shown) [Example 2, 5-Methyl-7-(naphthalen-1-yloxy)-4,5,6,7-tetrahydrothieno[3,2-c]pyridine], for which the inhibition constant Ki is 478 nM in experiment [1] and 27.2 nM in experiment [2].

Regarding `CN1Cc2occc2C(Oc2ccc(Cl)c(Cl)c2)C1.Cl` (stereo not shown) [Example 21, 4-(3,4-Dichlorophenyloxy)-6-methyl-4,5,6,7-tetrahydrofuro[2,3-c]pyridine hydrochloride], the “leak point pressure” value in the experiment on rats under anesthesia was “raised the leak point pressure”.

`CCN1Cc2sccc2C(Oc2ccc(Cl)c(Cl)c2)C1` (stereo not shown) [Example 24, 4-(3,4-Dichlorophenyloxy)-6-ethyl-4,5,6,7-tetrahydrothieno[2,3-c]pyridine hydrochloride]: the inhibition constant Ki is 279 nM in experiment [1] and 9.5 nM in experiment [2].

In the case of `Cc1cc2c(o1)CN(C)CC2Oc1ccc(Cl)c(Cl)c1` (stereo not shown) [Example 57, 4-(3,4-Dichlorophenyloxy)-2,6-dimethyl-4,5,6,7-tetrahydrofuro[2,3-c]pyridine hydrochloride], the inhibition constant Ki was 244 nM in experiment [1] and 14.1 nM in experiment [2].

For `CN1Cc2occc2C(Oc2ccc(Br)c(Cl)c2)C1` (stereo not shown) [Example 66, 4-(4-Bromo-3-chlorophenyloxy)-6-methyl-4,5,6,7-tetrahydrofuro[2,3-c]pyridine hydrochloride], the inhibitory constant (Ki) in experiment [1] is 484 nM; in experiment [2], 3.9 nM.

As to `Cc1cc2c(o1)CN(C)CC2Oc1ccc(Cl)c2ccccc12` (stereo not shown) [Example 84, 4-(4-Chloronaphthalene-1-yloxy)-2,6-dimethyl-4,5,6,7-tetrahydrofuro[2,3-c]pyridine hydrochloride], the results for the Ki in experiment [1] and in experiment [2] were 207 nM and 7.9 nM, respectively.

Take `Cc1cc2c(s1)CN(C)CC2Oc1ccc(Br)c(Br)c1` (stereo not shown) [Example 98, 4-(3,4-Dibromophenyloxy)-2,6-dimethyl-4,5,6,7-tetrahydrothieno[2,3-c]pyridine hydrochloride]: the Ki in experiment [1] was 455 nM; in experiment [2], 8.6 nM.

For `CN1CCC(Oc2ccc(Cl)c(Cl)c2)c2sccc2C1` (stereo not shown) [Example 108, 8-(3,4-Dichlorophenyloxy)-5-methyl-5,6,7,8-tetrahydro-4H-thieno[3,2-c]azepine hydrochloride], the inhibitory constant (Ki) in experiment [1] is 64.4 nM; in experiment [2] it was 1.7 nM.

As for `CN1CCc2sccc2C(Oc2cccc3ccccc23)C1` (stereo not shown) [Example 109, 6-Methyl-4-(naphthalen-1-yloxy)-5,6,7,8-tetrahydro-4H-thieno[2,3-d]azepine hydrochloride], the Ki in experiment [1] is 66.2 nM; in experiment [2], 8.9 nM.

As for `CN1CCC(Oc2ccc(Cl)c3ccccc23)c2sccc2C1` (stereo not shown) [Example 115, 8-(4-Chloronaphthalen-1-yloxy)-5-methyl-5,6,7,8-tetrahydro-4H-thieno[3,2-c]azepine hydrochloride], the figures for the inhibition constant Ki in experiment [1] and in experiment [2] were 70.7 nM and 1.2 nM, respectively.

On to `Cc1cc2c(s1)CN(C)CCC2Oc1ccc(C(F)(F)F)cc1.Cl` (stereo not shown) [Example 133, 2,7-dimethyl-4-[4-(trifluoromethyl)phenyloxy]-5,6,7,8-tetrahydro-4H-thieno[2,3-c]azepine hydrochloride], for which the “leak point pressure” value in the experiment with rats under anesthesia is “raised the leak point pressure”.

Regarding `Cc1cc2c(s1)CN(C)CCC2Oc1ccc(Br)c(Br)c1` (stereo not shown) [Example 135, 4-(3,4-Dibromophenyloxy)-2,7-dimethyl-5,6,7,8-tetrahydro-4H-thieno[2,3-c]azepine hydrochloride], in experiment [2], the inhibition constant (Ki) was 5.4 nM.

On to `Cc1cc2c(o1)CN(C)CCC2Oc1cccc2ccccc12` (stereo not shown) [Example 140, 2,7-Dimethyl-4-(naphthalen-1-yloxy)-5,6,7,8-tetrahydro-4H-furo[2,3-c]azepine], for which the inhibition constant (Ki) is 8.4 nM in experiment [1] and 4.1 nM in experiment [2].

As for `Cc1cc2c(s1)CN(C)CCC2Oc1cccc(Cl)c1Cl` (stereo not shown) [Example 148, 4-(2,3-Dichlorophenyloxy)-2,7-dimethyl-5,6,7,8-tetrahydro-4H-thieno[2,3-c]azepine hydrochloride], the Ki in experiment [1] is 2 nM; in experiment [2] it was 2.1 nM.

`CN1CCC(Oc2cccc(Cl)c2Cl)c2ccsc2C1` (stereo not shown) [Example 149, 4-(2,3-Dichlorophenyloxy)-7-methyl-5,6,7,8-tetrahydro-4H-thieno[2,3-c]azepine hydrochloride]: the Ki was 1.7 nM in experiment [1] and 1.8 nM in experiment [2].

Take `CN1CCC(Oc2cccc3ccccc23)c2occc2C1` (stereo not shown) [Example 157, 5-Methyl-8-(naphthalen-1-yloxy)-5,6,7,8-tetrahydro-4H-furo[3,2-c]azepine]: the figures for the Ki in experiment [1] and in experiment [2] were 57.5 nM and 6.8 nM, respectively.

As to `Cc1cc2c(o1)CN(C)CCC2Oc1cccc(Cl)c1Cl` (stereo not shown) [Example 163, 4-(2,3-Dichlorophenyloxy)-2,7-dimethyl-5,6,7,8-tetrahydro-4H-furo[2,3-c]azepine], the results for the Ki in experiment [1] and in experiment [2] were 12 nM and 3.8 nM, respectively.

Consider `CN1CCC(Oc2cccc(Cl)c2Cl)c2occc2C1` (stereo not shown) [Example 168, 8-(2,3-Dichlorophenyloxy)-5-methyl-5,6,7,8-tetrahydro-4H-furo[3,2-c]azepine], for which the Ki was 23.8 nM in experiment [1] and 6.6 nM in experiment [2].

In the case of `CN1CCC(Oc2cccc(Br)c2Cl)c2ccoc2C1` (stereo not shown) [Example 177, 4-(3-Bromo-2-chlorophenyloxy)-7-methyl-5,6,7,8-tetrahydro-4H-furo[2,3-c]azepine], the results for the inhibition constant (Ki) in experiment [1] and in experiment [2] were 27.5 nM and 3.1 nM, respectively.

Regarding `CN1CCC(Oc2cccc3ccccc23)c2ccoc2C1` (stereo not shown) [Example 179, 7-Methyl-4-(naphthalen-1-yloxy)-5,6,7,8-tetrahydro-4H-furo[2,3-c]azepine hydrochloride], the inhibition constant (Ki) in experiment [1] was 24.4 nM; in experiment [2] it was 1 nM.

Regarding `Cc1cc2c(o1)CN(C)CCC2Oc1cccc(Br)c1Cl` (stereo not shown) [Example 200, 4-(3-Bromo-2-chlorophenyloxy)-2,7-dimethyl-5,6,7,8-tetrahydro-4H-furo[2,3-c]azepine], the Ki in experiment [1] was 21.5 nM; in experiment [2] it was 1.7 nM.

Consider `CN1CCC(Oc2cccc(Cl)c2Cl)c2ccoc2C1` (stereo not shown) [Example 213, 4-(2,3-Dichlorophenyloxy)-7-methyl-5,6,7,8-tetrahydro-4H-furo[2,3-c]azepine hydrochloride], for which the inhibitory constant (Ki) was 4.1 nM in experiment [1] and 0.9 nM in experiment [2].

Regarding `CN1CCC(Oc2ccc(C(N)=O)cc2Cl)c2ccoc2C1` (stereo not shown) [Example 225, 4-(2-Chloro-4-carbamoylphenyloxy)-7-methyl-5,6,7,8-tetrahydro-4H-furo[2,3-c]azepine hydrochloride], the Ki is 11.7 nM in experiment [1] and 18.3 nM in experiment [2].
